# Measured values reported in paper PMC10325900, “A conserved motif in the disordered linker of human MLH1 is vital for DNA mismatch repair and its function is diminished by a cancer family mutation” (Nucleic Acids Research, 2023).
# “Also recorded” adds a separate entry of the source. No end group written: not given here.
# What was measured:
# [1] = test system: MLH1 variant p.Arg385Pro and PMS2; test: MMR complementation assay with peptide, MLH1 p.Arg385Pro variant; type: biochemical, human; conditions: ConMot-32 at 0, 7.5, 18 and 75 μM
# Procedure: (§1) Mismatch repair activity was assessed as described in detail before ([79],[81]) (Supplementary Figure S3). […] Mismatched DNA plasmid substrate (Supplementary Figure S3) prepared according to previously published procedures ([81–83]) was added, and reactions in a final volume of 25 μl were incubated at 37°C for 15 min. Repair efficiency was scored by purifying the mismatched DNA plasmid from the reaction and assessing the fraction of homoduplex sequence by restriction digestion of the mismatched site using EcoRV. The substrate was additionally linearized with AseI.
# For complementation assays with peptide, the indicated peptide(s) were used at stock concentrations of 50 or 500 μM in HEPES–KOH 20 mM pH 7.6 and supplemented to the MMR reactions.
# In an identical way, we analyzed the effects of the ConMot peptide on MMR activity of the defective human MLH1 missense variant p.Arg385Pro (Figure 5).
# Figure 5. […] Several MMR assays were performed; a representative agarose gel is shown (top), and average MMR activity values and standard deviations of three independent experiments were calculated (bottom). […]
# In parallel, the single- strand nick is ligated. […] 40- 80% absolute repair, determined as signal intensities of the repair bands divided by sum of signal intensities of all plasmid bands, are optimally achieved and allow accurate determination of MMR activity of variants. […]
# [2] = test system: DNA mismatch repair reaction of MMR-proficient HEK293 cell extract; test: MMR competition test with nuclear extract of MMR-proficient HEK293 cells; type: biochemical, human; conditions: up to 75 μM ConMot-32 peptide
# Procedure: as §1
# For complementation assays with peptide, the indicated peptide(s) were used at stock concentrations of 50 or 500 μM in HEPES–KOH 20 mM pH 7.6 and supplemented to the MMR reactions. […]
# Figure 4. […] (C) The concentration-dependence of the MMR-activating effect of the ConMot-32 peptide observed in (B) was measured over a concentration range from 1–75 μM. […] Into this diagram, the average MMR activities (and standard deviations) measured in >3 of the experiment exemplarily shown in C were introduced as bars at ConMot-32 peptide concentrations of 1, 2.5, 7.5, 18 and 75 μM. […]
# In parallel, the single- strand nick is ligated. […] 40- 80% absolute repair, determined as signal intensities of the repair bands divided by sum of […]
sequence,measurement,setting,value
SGSSDKVYAHQMVRTDSREQKLDAFLQPLSKP [ConMot-32],"peptide concentrations required for restoration of p.Arg385Pro variant, compared with ConMot-deletion variant",[1],identical peptide concentrations as with the ConMot-deletion variant
same,restoration of DNA mismatch repair activity of the p.Arg385Pro variant,"[1]; 37°C, 15 min, average of three independent experiments, listed as ConMot peptide",Restoration of MMR activity was again observed; also recorded: could be overcome
same,interference with regular DNA mismatch repair,[2]; listed as ConMot peptide,did not detectably interfere
same,interference with regular DNA mismatch repair,[2]; listed as ConMot-peptide,not attenuated
